# Measurements from patent US20240408216A1, “PROTEIN INHIBITOR OR DEGRADING AGENT, PHARMACEUTICAL COMPOSITION CONTAINING SAME AND PHARMACEUTICAL USE” (JING MEDICINE TECHNOLOGY (SHANGHAI) LTD., priority 2021, published 2024).
# pIC50: −log10 of the molar value.
# Key:
# [1] = test system: BaF3 (EGFR L858R/T790M/C797S); test: Cell proliferation IC50 assay (Cell Titer GLO), BaF3 LTC cells; format: cell-based; conditions: Mus musculus, Ba/F3 EGFR, Table 6, 72 h
# Procedure, shortened: (§1)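 Each cell line, plated at 2000-4000 cells/well, received serially diluted compound for 72 h (37° C, 5% CO2) before luminescent ATP-based viability detection. IC50 values were derived from growth inhibition relative to DMSO-treated and cell-free blank wells.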
# BaF3 (EGFR Del19/C797S) = biological target: T1, BaF3 (EGFR Del19/C797S) (Homo sapiens, UniProt P00533, C797S, cells depend on it, form not given); test: Cell proliferation IC50 assay (Cell Titer GLO), BaF3 DC cells; format: cell-based, mouse; conditions: Table 6, 72 h
# T1 construct: BaF3 (EGFR Del19/C797S)|DC|RPMI1640 + 10% FBS
# T1 sequence (P00533 with tags, fused parts or gaps DEL746-750/C797S, form open): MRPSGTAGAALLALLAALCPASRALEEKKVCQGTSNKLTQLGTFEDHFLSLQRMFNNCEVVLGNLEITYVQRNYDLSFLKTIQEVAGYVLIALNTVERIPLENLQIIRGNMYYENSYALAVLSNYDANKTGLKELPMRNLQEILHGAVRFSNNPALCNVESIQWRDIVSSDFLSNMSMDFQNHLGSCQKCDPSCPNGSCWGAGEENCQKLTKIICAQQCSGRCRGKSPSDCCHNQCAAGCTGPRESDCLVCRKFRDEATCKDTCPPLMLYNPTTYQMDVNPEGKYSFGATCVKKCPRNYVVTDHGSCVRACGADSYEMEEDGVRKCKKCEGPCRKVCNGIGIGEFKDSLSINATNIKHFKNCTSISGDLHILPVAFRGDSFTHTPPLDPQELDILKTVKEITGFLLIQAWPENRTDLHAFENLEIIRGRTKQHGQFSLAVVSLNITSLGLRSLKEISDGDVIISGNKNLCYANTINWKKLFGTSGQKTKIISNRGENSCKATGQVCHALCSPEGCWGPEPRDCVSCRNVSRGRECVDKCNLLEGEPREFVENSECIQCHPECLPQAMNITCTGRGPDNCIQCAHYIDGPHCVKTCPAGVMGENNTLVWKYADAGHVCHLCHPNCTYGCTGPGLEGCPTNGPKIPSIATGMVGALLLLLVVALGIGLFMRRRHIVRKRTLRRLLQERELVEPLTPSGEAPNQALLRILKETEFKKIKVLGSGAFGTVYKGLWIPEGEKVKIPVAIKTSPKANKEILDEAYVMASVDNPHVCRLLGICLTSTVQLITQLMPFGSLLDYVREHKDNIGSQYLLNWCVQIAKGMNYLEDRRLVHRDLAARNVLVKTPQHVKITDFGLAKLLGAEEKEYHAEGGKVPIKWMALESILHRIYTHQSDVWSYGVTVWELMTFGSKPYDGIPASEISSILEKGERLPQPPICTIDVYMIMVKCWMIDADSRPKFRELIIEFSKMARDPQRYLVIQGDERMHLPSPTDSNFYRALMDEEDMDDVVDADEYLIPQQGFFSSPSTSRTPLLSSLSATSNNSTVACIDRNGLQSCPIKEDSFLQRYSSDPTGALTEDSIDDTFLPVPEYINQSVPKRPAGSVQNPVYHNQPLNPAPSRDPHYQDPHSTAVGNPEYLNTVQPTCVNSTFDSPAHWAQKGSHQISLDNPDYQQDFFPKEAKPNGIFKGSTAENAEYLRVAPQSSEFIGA
# Procedure, shortened: as §1
# BaF3 patent = test: Cell proliferation IC50 assay (Cell Titer GLO), BaF3 parental cells; format: cell-based; conditions: Mus musculus, Table 6, 10 ng/ml mIL3, 72 h
# Experimental: (§2) IC50 of compounds in the present invention was determined by Cell Titer GLO reagent from Promega. The procedures are as follows:
# (§3) Tumor cells were cultured in specified medium in an incubator at 37° C. and 5% CO2. The cells were passaged periodically. Cells at the logarithmic growth phase were collected for plating at a density of 2000-4000 cells/well. The next day, the compounds of the present invention were serially diluted and added to the cells, with DMSO being the negative control and the culture media without cells being the blank control. The plate was incubated in the incubator for 72 h. The cell viability assay was performed by adding the detection reagents to the cell culture media according to Cell Titer GLO reagent instructions and detecting luminescent signals on an EnVision microplate reader (PerkinElmer).
# (§4) Inhibition of cell growth by the compounds of the present invention was plotted by Prism Graphpad software for statistically calculating the IC50 of the compound of the present invention.
# BaF3 (EGFR WT) = test: Cell proliferation IC50 assay (Cell Titer GLO), BaF3 WT cells; format: cell-based; conditions: Mus musculus, Ba/F3 EGFR, Table 6, 10 ng/ml EGF, 72 h
# Procedure, shortened: as §1
# A431 = test: Cell proliferation IC50 assay (Cell Titer GLO), A431 cells; format: cell-based; conditions: Homo sapiens, A-431; Table 6; A431, 72 h; read-out: A431 IC50
# Procedure, shortened: as §1
# [2] = test system: BaF3 (EGFR Del19/T790M/C797S); test: Cell proliferation IC50 assay (Cell Titer GLO), BaF3 DTC cells; format: cell-based; conditions: Mus musculus, Ba/F3 EGFR-Del19/T790M/C797S, Table 6, 72 h
# Experimental: as §2, §3, §4
pIC50 [1],pIC50 (BaF3 (EGFR Del19/C797S)),pIC50 (BaF3 (EGFR WT)),pIC50 (A431),pIC50 [2],Structure (SMILES),pIC50 (BaF3 patent)
7.66,8.34,6.19,6.00,8.26,COc1cc(N2CCC(N3CCN(CCCCOc4cccc5c4CN(C4CCC(=O)NC4=O)C5=O)CC3)CC2)c(C#N)cc1Nc1ncc(Cl)c(Nc2ccccc2P(C)(C)=O)n1 (stereo not shown) [Example E103],
7.12,8.49,5.76,5.45,7.98,CCc1cc(Nc2ncc(Cl)c(Nc3ccccc3P(C)(C)=O)n2)c(OC)cc1N1CCC(N2CCN(CCOc3cccc4c3CN(C3CCC(=O)NC3=O)C4=O)C(C)(C)C2)CC1 (stereo not shown) [Example E108],
7.08,8.19,< 5.40,5.94,7.98,CCc1cc(Nc2ncc(Cl)c(Nc3ccccc3P(C)(C)=O)n2)c(OC)cc1N1CCC(N2CCN(CCOCCc3cccc4c3CN(C3CCC(=O)NC3=O)C4=O)CC2)CC1 (stereo not shown) [Example E109],
7.61,8.85,6.11,5.93,8.28,CCc1cc(Nc2ncc(Cl)c(Nc3ccccc3P(C)(C)=O)n2)c(OC)nc1N1CCC(N2CCN(CCCCOc3cccc4c3CN(C3CCC(=O)NC3=O)C4=O)CC2)CC1 (stereo not shown) [Example E115],
6.97,6.97,5.40,5.90,8.17,CCc1cc(Nc2ncc(Cl)c(Nc3ccc(F)cc3P(C)(C)=O)n2)c(OC)cc1N1CCC(N2CCN(CCOc3cccc4c3CN(C3CCC(=O)NC3=O)C4=O)CC2)CC1 (stereo not shown) [Example E124],
6.98,7.74,< 5.40,< 5.40,7.69,COCc1cc(Nc2ncc(Cl)c(Nc3ccccc3P(C)(C)=O)n2)c(OC)cc1N1CCC(N2CCN(CCCCOc3cccc4c3CN(C3CCC(=O)NC3=O)C4=O)CC2)CC1 (stereo not shown) [Example E125],
7.14,7.36,< 5.40,< 5.40,7.72,CCc1cc(Nc2nc(Nc3ccccc3P(C)(C)=O)c3cc[nH]c3n2)c(OC)cc1N1CCC(N2CCN(CCOc3cccc4c3CN(C3CCC(=O)NC3=O)C4=O)CC2)CC1 (stereo not shown) [Example E126],
7.25,8.17,< 5.40,5.50,8.41,CCc1cc(Nc2ncc(Cl)c(Nc3ccccc3P(C)(C)=O)n2)c(OC(F)F)cc1N1CCC(N2CCN(CCOc3cccc4c3CN(C3CCC(=O)NC3=O)C4=O)CC2)CC1 (stereo not shown) [Example E151],
6.64,7.79,< 5.40,5.83,8.12,CCc1cc(Nc2ncc(Cl)c(Nc3ccccc3P(C)(C)=O)n2)c(OC(F)(F)F)cc1N1CCC(N2CCN(CCOc3cccc4c3CN(C3CCC(=O)NC3=O)C4=O)CC2)CC1 (stereo not shown) [Example E152],
6.99,7.47,5.42,5.50,7.95,CCc1cc(Nc2ncc(Cl)c(Nc3ccccc3P(C)(C)=O)n2)c(OC)cc1N1CCC(N2CCN(CC(C)(C)Oc3cccc4c3CN(C3CCC(=O)NC3=O)C4=O)CC2)CC1 (stereo not shown) [Example E157],
< 5.40,8.38,< 5.40,< 5.40,6.11,CCc1cc(Nc2ncc(-n3cccn3)c(Nc3ccccc3P(C)(C)=O)n2)c(OC)cc1N1CCC(N2CCN(CCOc3cccc4c3CN(C3CCC(=O)NC3=O)C4=O)CC2)CC1 (stereo not shown) [Example E165],
5.52,8.82,6.01,5.96,7.42,CCc1cc(Nc2ncc(-c3cn[nH]c3)c(Nc3ccccc3P(C)(C)=O)n2)c(OC)cc1N1CCC(N2CCN(CCOc3cccc4c3CN(C3CCC(=O)NC3=O)C4=O)CC2)CC1 (stereo not shown) [Example E167],
7.35,8.89,6.82,5.93,8.23,COc1cc(N2CCC(N3CCN(CCCCOc4cccc5c4CN(C4CCC(=O)NC4=O)C5=O)CC3)CC2)c(CC#N)cc1Nc1ncc(Cl)c(Nc2ccccc2P(C)(C)=O)n1 (stereo not shown) [Example E179],
6.84,7.69,5.78,5.74,7.73,COc1cc(N2CCC(N3CCN(CCOc4cccc5c4CN(C4CCC(=O)NC4=O)C5=O)CC3)CC2)c(C(C)=O)cc1Nc1ncc(Cl)c(Nc2ccccc2P(C)(C)=O)n1 (stereo not shown) [Example E185],

# The next lines start with the compound.
Structure (SMILES),pIC50 [1],pIC50 (BaF3 (EGFR Del19/C797S)),pIC50 (BaF3 (EGFR WT)),pIC50 (A431),pIC50 [2],pIC50 (BaF3 patent)
COc1cc(N2CCC(N3CCN(CCC#Cc4cccc5c4CN(C4CCC(=O)NC4=O)C5=O)CC3)CC2)c(C)cc1Nc1ncc(Br)c(Nc2ccccc2P(C)(C)=O)n1 (stereo not shown) [Example E7],7.37,7.83,6.87,,,6.57
CCc1cc(Nc2ncc(Cl)c(Nc3ccccc3P(C)(C)=O)n2)c(OC)cc1N1CCC(N2CCN(CCCC#Cc3ccc4c(N5CCC(=O)NC5=O)nn(C)c4c3)CC2)CC1 [Example E97],6.76,7.69,5.97,5.97,7.34,
COc1cc(C2CCN(C3CCN(CCCCOc4cccc5c4CN(C4CCC(=O)NC4=O)C5=O)CC3)CC2)c(OC)cc1Nc1ncc(Cl)c(Nc2ccccc2P(C)(C)=O)n1 (stereo not shown) [Example E98],7.34,8.30,6.25,5.93,7.81,
CCc1cc(Nc2ncc(Cl)c(Nc3ccccc3P(C)(C)=O)n2)c(OC)cc1N1CCC(N2CCN(C(=O)CNc3cccc4c3C(=O)N(C3CCC(=O)NC3=O)C4=O)CC2)CC1 (stereo not shown) [Example E112],7.07,7.97,< 5.40,5.86,7.74,
CCc1cc(Nc2ncc(Cl)c(Nc3ccccc3P(C)(C)=O)n2)c(OC)cc1N1CCC(N(C)CCCCOc2cccc3c2CN(C2CCC(=O)NC2=O)C3=O)CC1 (stereo not shown) [Example E116],7.25,8.37,< 5.40,5.91,8.14,
CCc1cc(Nc2ncc(Cl)c(Nc3ccccc3P(C)(C)=O)n2)c(OC)cc1N1CCC(N2C[C@@H](C)N(CCCCOc3cccc4c3CN(C3CCC(=O)NC3=O)C4=O)[C@@H](C)C2)CC1 (stereo partly shown) [Example E129],7.32,8.48,6.05,5.88,8.21,
CCc1cc(Nc2ncc(Cl)c(Nc3ccccc3P(C)(C)=O)n2)c(OC)cc1N1CCC(N2C[C@@H]3C[C@H]2CN3CCOc2cccc3c2CN(C2CCC(=O)NC2=O)C3=O)CC1 (stereo partly shown) [Example E137],7.12,8.18,5.97,5.89,7.94,
CCc1cc(Nc2nc(Nc3ccccc3P(C)(C)=O)c3cc[nH]c3n2)c(C)cc1N1CCC(N2CCN(CCCCOc3cccc4c3CN(C3CCC(=O)NC3=O)C4=O)CC2)CC1 (stereo not shown) [Example E140],7.26,8.09,< 5.40,< 5.40,8.10,
COc1cc(N2CCC(N3CCN(CCCCOc4cccc5c4CN(C4CCC(=O)NC4=O)C5=O)CC3)CC2)c(-c2cnn(C)c2)cc1Nc1ncc(Cl)c(Nc2ccccc2P(C)(C)=O)n1 (stereo not shown) [Example E146],7.25,8.25,6.73,6.04,7.80,
CCc1cc(Nc2ncc(Cl)c(Nc3ccccc3P(C)(C)=O)n2)c(OC)cc1N1CCC(N2CCN(C(C)(C)C#Cc3cccc4c3CN(C3CCC(=O)NC3=O)C4=O)CC2)CC1 (stereo not shown) [Example E156],6.66,7.78,< 5.40,≤ 5.81,7.97,
CCc1cc(Nc2ncc(Cl)c(Nc3ccccc3P(C)(C)=O)n2)c(OC)cc1N1CCC(N2CCN([C@H]3C[C@H](Oc4cccc5c4CN(C4CCC(=O)NC4=O)C5=O)C3)CC2)CC1 (stereo partly shown) [Example E160],7.84,9.10,5.89,5.62,8.54,
COc1cc(N2CCC(N3CCN(CCC#Cc4cccc5c4CN(C4CCC(=O)NC4=O)C5=O)CC3)CC2)c(CC#N)cc1Nc1ncc(Cl)c(Nc2ccccc2P(C)(C)=O)n1 (stereo not shown) [Example E180],7.65,8.62,6.05,5.96,8.27,
CCc1cc(Nc2ncc(Cl)c(Nc3ccccc3P(C)(C)=O)n2)c(OC)cc1N1CCC(N2CCN([C@H]3C[C@H](Oc4cc5c(cc4F)C(=O)N(C4CCC(=O)NC4=O)C5)C3)CC2)CC1 (stereo partly shown) [Example E205],7.29,8.00,< 5.40,5.98,8.16,
[2H]C([2H])([2H])C([2H])([2H])c1cc(Nc2ncc(Cl)c(Nc3ccccc3P(C)(C)=O)n2)c(OC)cc1N1CCC(N2CCN(CCOc3ccc4c(c3)CN(C3CCC(=O)NC3=O)C4=O)CC2)CC1 (stereo not shown) [Example E221],7.65,8.19,5.76,< 5.40,7.92,
